Reference: paper PMC6906431, “Selective small molecule PARG inhibitor causes replication fork stalling and cancer cell death” (Nature Communications, 2019)
Where “and” joins values, the source holds several entries; their conditions need not be identical. Identical values can stand only once.

Columns and labels:
[1] = Sulforhodamine B (SRB) cytotoxicity assay; conditions: human, A172 glioblastoma cells
Experimental: (§1) Normalized % viabilities are plotted against log concentration. Error bars show the percent coefficient of variation. […] Mann-Whitney test was used to generate the p-value. The DNA spread assay is the representation of two independently repeated experiments. Source Data are provided as a Source Data file.
(§2) Cells were plated in 96-well plates, treated as designated in reduced 5% FBS and fixed with trichloroacetic acid after 72 h, as previously described by[43]. […] Colorimetric or fluorescence analysis was performed in a FlexStation 3, using SoftMax Pro 7.0, Molecular Devices. Normalized graphs were generated with Prism 8 software, non-linear 4-parameter data fitting was performed for IC50 calculation.

[2] = test system: A172 glioblastoma cells; assay: Sulforhodamine B (SRB) cytotoxicity assay; conditions: Homo sapiens, A 172, 72 h
Experimental: as §1, §2

[3] = test system: PC3 cells; assay: Immunoblot of HMW/LMW PARP1 in chromatin fractions; assay type: cell-based, human; conditions: normalized to DMSO = 1, IR 7 Gy, replicates
Experimental: To identify suitable cell lines to test PARGi, we evaluated PARG protein expression patterns on a panel of prototypic cancer cell lines. Cells were fractionated into cytoplasmic, nuclear and chromatin, and then PARG expression and localization were evaluated using an anti-PARG antibody (Fig. 4a). A varying level of PARG was detected in three cellular compartments. In prostate adenocarcinoma (PC3) and breast mammary epithelial (MCF-7) cells, PARG level was the highest in the cytoplasm, followed by the nucleus, with the lowest seen in the chromatin fraction. […] The PC3 cell line, with one of the highest levels of PARG expression, was selected for our initial PARGi testing. PC3 cells were treated with either DMSO or JA2131 for 2 h, then exposed to 7 Gy of IR and allowed to recover for a designated time period before harvesting and cell fractionation. Chromatin fractions of the cell lysates were analyzed by immunoblotting with PARP1 specific antibody (Fig. 4b), and the PARylation states of PARP1 were monitored as a marker for PARG inhibition. […] In these cells, PARylated PARP1 in response to PARG inhibition appeared as a discrete HMW (DHMW) proteins with limited smearing, as observed previously. […] To assess whether DHMW was due to PARylation and not any other post-translational modifications, chromatin fractions of the PARGi-treated PC3 cell-lysates were treated with purified PARG, followed by anti-PARP1 western blotting. This led to the restoration of LMW PARP1, indicating PARylation was indeed causing the DHMW (Fig. 4c, d). Thus, a dynamic equilibrium between DHMW and LMW nuclear PARP1 exists in cells, and PARGi shifts this equilibrium towards DHMW.
Fig. 4 JA2131 induces hyperPARylation of PARP1. a Subcellular PARG protein expression patterns in cultured cells. […] Chromatin bound cell-extracts were analyzed with anti-PARP1 antibody (upper panel) followed by probing with total Histone H2AX (t-H2AX, lower panel) as the loading control. c DMSO or 2131-treated PC3 cells were irradiated and recovered for 2 h as above, chromatin fractions were then incubated with or without purified PARG enzyme (±PARG) for 30 min at 37 °C then immunoblotted with anti-PARP1 (upper panel) and then with anti-histone H3 (lower panel) as loading control. d Quantitative analysis of western blot of b, where expression of PARP1 levels in DMSO treated was normalized to 1. […]

[4] = chromatin fraction incubated with purified PARG (+)

## Cn1c(=S)c2[nH]c(SCCN3CCOCC3)nc2n(C)c1=O [JA2131]
[1]
  viability at 72 h, 0.244 µM: 100%
  viability at 72 h, 0.488 µM: 98.3%
  viability at 72 h, 0.977 µM: 99.4%
  viability at 72 h, 1.95 µM: 101%
  viability at 72 h, 3.91 µM: 104%
  viability at 72 h, 7.82 µM: 96.7%
  viability at 72 h, 15.6 µM: 95.9%
  viability at 72 h, 31.3 µM: 78.7%
  viability at 72 h, 62.5 µM: 53.3%
  viability at 72 h, 125 µM: 16.6%
  viability at 72 h, 250 µM: 14.4%
  viability at 72 h, 500 µM: 13.5%
[2]
  IC50: 55.3 ± 7.9 µM
[3]; [4]
  HMW PARP1: 0.2746 and 0.8185 and 0.3259
  LMW PARP1: 1.147 and 1.092 (2×)
[3]; without added purified PARG
  HMW PARP1: 0.6751 and 1.387 and 4.419
  LMW PARP1: 0.7041 and 0.9592 (2×)
